# Results: PubChem BioAssay (NCI)
# Several values for one entry are separate records, joined by “and”; a condition that tells them apart may be missing. Identical values can stand only once.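 Results reflect a 48-hour exposure of cells in 96-well plates to compound at five concentrations. GI50 marks 50% less growth. TGI: concentration producing complete growth inhibition.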
# Legend:
# Assay in all cases: NCI tumour cell line growth inhibition, 48 h
# CCRF-CEM leukemia = test system: CCRF-CEM leukemia
# SNB-75 CNS = test system: SNB-75 CNS
# SK-MEL-2 melanoma = test system: SK-MEL-2 melanoma
# HCC-2998 colon = test system: HCC-2998 colon
# K-562 leukemia = test system: K-562 leukemia
# HOP-92 NSCLC = test system: HOP-92 NSCLC
# HOP-62 NSCLC = test system: HOP-62 NSCLC
# U251 CNS = test system: U251 CNS
# NCI-H23 lung = test system: NCI-H23 lung
# SR leukemia = test system: SR leukemia
Structure (SMILES),TGI (CCRF-CEM leukemia),TGI (SNB-75 CNS),TGI (SK-MEL-2 melanoma),TGI (HCC-2998 colon),TGI (K-562 leukemia),TGI (HOP-92 NSCLC),TGI (HOP-62 NSCLC),TGI (U251 CNS),TGI (NCI-H23 lung),GI50 (CCRF-CEM leukemia),GI50 (SNB-75 CNS),GI50 (U251 CNS),GI50 (SK-MEL-2 melanoma),GI50 (HCC-2998 colon),GI50 (NCI-H23 lung),GI50 (K-562 leukemia),GI50 (HOP-92 NSCLC),GI50 (HOP-62 NSCLC),GI50 (SR leukemia),TGI (SR leukemia)
O=C1C=C[C@@]23CC1C(O)C[C@H]2C=Cc1ccccc13 (stereo partly specified),> 100 µM,> 100 µM,> 100 µM,> 100 µM,> 100 µM,> 100 µM,> 100 µM,,,,,,,,,,,,,
COC(=O)C1=C(C)N(NC(N)=O)C2(N)N(NC(N)=O)C(C)=C(C(=O)OC)C12C(=O)OC (stereo unspecified),> 100 µM,,> 100 µM,> 100 µM,> 100 µM,> 100 µM,> 100 µM,> 100 µM,> 100 µM,,,,,,,,,,,
CC12CCC3C(CC=C4CC(O)CCC43C)C1C/C(=C\N1CCCC1)C2=O (stereo unspecified),> 100 µM,> 100 µM,> 100 µM,> 100 µM,> 100 µM,83.7 µM,> 100 µM,> 100 µM,> 100 µM,79.3 µM,41.5 µM,> 100 µM,> 100 µM,> 100 µM,> 100 µM,55.8 µM,4.52 µM,> 100 µM,,
N#CC(C(=O)/C(=N/N)C(C#N)c1ccc(Cl)cc1)c1ccc(Cl)cc1 (stereo unspecified),> 100 µM,> 100 µM,> 100 µM,> 100 µM,> 100 µM,> 100 µM,> 100 µM,> 100 µM,> 100 µM,,,,,,,,,,,
COc1ccc(C=C2C(=O)OC(C)(C)OC2=O)cc1OC,> 100 µM,> 100 µM,> 100 µM,> 100 µM,> 100 µM,,> 100 µM,> 100 µM,> 100 µM,,,,,,,,,,,
CC(=O)O[C@H]1C(=O)[C@@]2(C)C(C(OC(=O)c3ccccc3)[C@]3(O)CC(OC(=O)[C@H](OC(=O)CCC(=O)O)C(NC(=O)c4ccccc4)c4ccccc4)C(C)=C1C3(C)C)C1(OC(C)=O)COC1C[C@@H]2OC(=O)CCC(=O)O (stereo partly specified),,> 26.8 µM,,42.4 µM,,> 100 µM,,> 100 µM,> 100 µM,,,,,,,,,,< 0.0202 µM,> 23.3 µM
[Cl][Bi]([O]c1ccccn1)[O]c1ccccn1,,> 100 µM,> 100 µM,> 100 µM,,,,> 100 µM,> 100 µM,,> 100 µM,> 100 µM,> 100 µM,> 100 µM,> 100 µM,,,,> 100 µM,> 100 µM
COc1c(O)c2c(c3cc(C(=O)N4CCc5c4c(O)c(OC)c4[nH]c(C(=O)N6CC7CC78C6=CC(=O)c6[nH]cc(C)c68)cc54)[nH]c13)CCN2C(N)=O (stereo unspecified),963 nM and 0.0344 µg/mL,,0.0349 µg/mL,0.174 µM and 1.02 µM,21.8 µM and 0.0594 µg/mL,28.8 nM and 0.0401 µg/mL,14.6 nM and 0.0745 µg/mL,2.66 nM and 305 nM and 0.00324 µg/mL,0.00242 µM,0.00439 µg/mL,,,0.0187 µg/mL,0.173 µM,,,0.0081 µg/mL,2.51 nM and 0.0165 µg/mL,,> 100 µM and 0.0804 µg/mL
Cc1ccc(NC(=O)CC2C(=O)Nc3ccccc3S2=O)cc1C (stereo unspecified),> 100 µM,> 100 µM,> 100 µM,> 100 µM,> 100 µM,74.2 µM,,> 100 µM,> 100 µM,,,,,,,,,,,> 100 µM
C[C@@H]1C=C(CCCCCCCCCCC[C@H](O)[C@@H]2CCC(=O)O2)C(=O)O1,47.4 µM,> 100 µM,> 100 µM,16.7 µM,56.7 µM,,> 100 µM,81.7 µM,99.1 µM,17.6 µM,> 100 µM,24.5 µM,40.8 µM,2.26 µM,24.2 µM,20.4 µM,,40.2 µM,,
CC(=O)Nc1ccc(C(=O)N2N=C(C)/C(=C/c3ccccc3O)C2=O)cc1,> 100 µM,> 100 µM,> 100 µM,> 100 µM,> 100 µM,,> 100 µM,,> 100 µM,,,,,,,,,,,> 100 µM
CCCC1c2c(ccc3ccccc23)Oc2ccc3ccccc3c21,,> 100 µM,54.3 µM,,,> 100 µM,> 100 µM,> 100 µM,> 100 µM,,,,,,,,,,,
CC1OC(n2ncc(=O)[nH]c2=O)C=CC1=O (stereo unspecified),,> 100 µM,> 100 µM,> 100 µM,> 100 µM,> 100 µM and 71.9 µM,> 100 µM,> 100 µM,> 100 µM and 37.3 µM,,,,> 100 µM and 49.2 µM,,34.7 µM and 16.5 µM,,71.1 µM and 32.8 µM,> 100 µM and 42.1 µM,,> 100 µM and 92.9 µM
CC(=O)Nc1ccc(/C=C/[N+](=O)[O-])cc1,7.48 µM,7.64 µM,25.6 µM,,8.57 µM,17.4 µM,21.4 µM,11.6 µM,10.9 µM,,,,,,,,,,,
N[C@@H](Cc1c[nH]c2ccccc12)C(=O)NC1CCN(C(=O)c2c[nH]c3ccccc23)CC1,> 100 µM,> 100 µM,> 100 µM,> 100 µM,> 100 µM,> 100 µM,> 100 µM,> 100 µM,> 100 µM,> 100 µM,37.4 µM,> 100 µM,> 100 µM,> 100 µM,> 100 µM,> 100 µM,71 µM,> 100 µM,,
Cc1c(C#N)cccc1-c1cc(-c2cn(Cc3cccc(C(C)(C)O)n3)nn2)nc(N)n1,> 100 µM,39 µM,79.3 µM,> 100 µM,> 100 µM,,> 100 µM,> 100 µM,> 100 µM,16.3 µM,2.96 µM,39.8 µM,21.3 µM,90.3 µM,26 µM,13.4 µM,,22.2 µM,13.3 µM,> 100 µM
CSc1nc(NC2OCC(OC(C)=O)C(OC(C)=O)C2OC(C)=O)c2c(OC(C)=O)c(C)c(=O)oc2n1 (stereo unspecified),> 100 µM,> 100 µM,> 100 µM,> 100 µM,> 100 µM,> 100 µM,> 100 µM,> 100 µM,> 100 µM,,,,,,,,,,,
CCN1C2=NC(=O)N(C)C(=O)C2(Cl)C(C(SC)S(=O)(=O)c2ccc(C)cc2)c2ccccc21 (stereo unspecified),25.7 µM,53.7 µM,> 100 µM,> 100 µM,55.1 µM,71.3 µM,> 100 µM,> 100 µM,50.4 µM,,,,,,,,,,,
O=c1cc(C(F)(F)F)c2cc3c(cc2o1)NCCC3,> 100 µM,,> 100 µM,> 100 µM,> 100 µM,> 100 µM,42.8 µM,63.4 µM,> 100 µM,,,,,,,,,,,> 100 µM
